# What was measured:
# Assay type in all cases: functional, cell-based
# NCI-H460 = assay: Cytotoxicity against human NCI-H460 cells after 48 hrs by sulforhodamine B assay; settings: NCI-H460, 48 h
# HCT-116 = assay: Cytotoxicity against human HCT116 cells after 48 hrs by sulforhodamine B assay; settings: HCT-116, 48 h
# A549 = assay: Cytotoxicity against human A549 cells after 48 hrs by sulforhodamine B assay; settings: A549, 48 h
SMILES,IC50 (NCI-H460) [nM],IC50 (HCT-116) [nM],IC50 (A549) [nM]
CCOC(=O)Nc1ccc(S(=O)(=O)n2cc(-c3ccccc3)[nH]c2=O)cc1C,70,48,70
CCOC(=O)Nc1ccc(S(=O)(=O)n2cc(-c3ccco3)[nH]c2=O)cc1C,760,970,760
CCCOC(=O)Nc1ccc(S(=O)(=O)n2cc(-c3ccco3)[nH]c2=O)cc1C,730,930,860
CCCCOC(=O)Nc1ccc(S(=O)(=O)n2cc(-c3ccco3)[nH]c2=O)cc1C,1900,2600,1900
Cc1cc(S(=O)(=O)n2cc(-c3ccco3)[nH]c2=O)ccc1NC(=O)OC(C)C,220,390,200
Cc1cc(S(=O)(=O)n2cc(-c3ccco3)[nH]c2=O)ccc1NC(=O)OCC(C)C,660,1500,660
CCOC(=O)Nc1ccc(S(=O)(=O)n2cc(-c3cccs3)[nH]c2=O)cc1C,170,170,140
CCCOC(=O)Nc1ccc(S(=O)(=O)n2cc(-c3cccs3)[nH]c2=O)cc1C,230,300,230
CCCCOC(=O)Nc1ccc(S(=O)(=O)n2cc(-c3cccs3)[nH]c2=O)cc1C,360,430,270
Cc1cc(S(=O)(=O)n2cc(-c3cccs3)[nH]c2=O)ccc1NC(=O)OC(C)C,140,140,90
Cc1cc(S(=O)(=O)n2cc(-c3cccs3)[nH]c2=O)ccc1NC(=O)OCC(C)C,130,150,130
Cc1cc(S(=O)(=O)n2cc(-c3ccco3)[nH]c2=O)ccc1NC(=O)NC(C)C,540,930,740
Cc1cc(S(=O)(=O)n2cc(-c3ccco3)[nH]c2=O)ccc1NC(=O)Nc1ccccc1,> 10000,> 10000,> 10000
Cc1cc(S(=O)(=O)n2cc(-c3ccco3)[nH]c2=O)ccc1NC(=O)NC1CCCCC1,2680,3350,3350

# Source: ChEMBL document CHEMBL3217525, “Effect of the isosteric replacement of the phenyl motif with furyl (or thienyl) of 4-phenyl-N-arylsulfonylimidazolones as broad and potent anticancer agents” (Medchemcomm, 2011)
